5 compounds from ChEMBL document CHEMBL1156898, “Synthesis, photophysical properties and photocytotoxicity of mono-, di-, tri- and tetra-glucosylated fluorophenylporphyrins” (Bioorg Med Chem, 2010) can be followed below.

The test system of data set [1] is HeLa. The data set is described as follows: Cytotoxicity against human HeLa cells assessed as cell survival in dark at 100 nM after 24 hrs by WST8 assay. It is filed as functional, cell-based.
Data set [2] concerns HeLa. The data set is described as follows: Phototoxicity against human HeLa cells irradiated with 16Jcm'-2 from halogen lamp assessed as cell survival at 100 nM after 24 hrs by WST8 assay. Format: functional, cell-based. To be noted: light or radiation study.
Data set [3] can be described thus: Lipophilicity, log P of the compound. It is filed as physicochemical. Particulars: octanol/water.
For data set [4], the system named is HeLa. The data set is described as follows: Drug uptake in human HeLa cells at 80 nM after 24 hrs relative to TPPS. It is filed as ADME, cell-based. To be noted: 0.08 µM.
In data set [5] the test system is HeLa. The data set is described as follows: Phototoxicity in human HeLa cells assessed as induction of cell shrinkage at 500 nM after 3 hrs using DAPI staining by confocal laser scanning microscopy. Format: functional, cell-based.
For data set [6], the system named is HeLa. The data set is described as follows: Phototoxicity in human HeLa cells assessed as induction of apoptotic bodies at 500 nM after 3 hrs using DAPI staining by confocal laser scanning microscopy. It is filed as functional, cell-based.

Activity calls are given as the source filed them. The calls are words filed in the database; no cut-off is given here.

Turning to `OC[C@H]1O[C@@H](Sc2c(F)c(F)c(-c3c4nc(c(-c5c(F)c(F)c(S[C@@H]6O[C@H](CO)[C@@H](O)[C@H](O)[C@H]6O)c(F)c5F)c5ccc([nH]5)c(-c5c(F)c(F)c(S[C@@H]6O[C@H](CO)[C@@H](O)[C@H](O)[C@H]6O)c(F)c5F)c5nc(c(-c6c(F)c(F)c(S[C@@H]7O[C@H](CO)[C@@H](O)[C@H](O)[C@H]7O)c(F)c6F)c6ccc3[nH]6)C=C5)C=C4)c(F)c2F)[C@H](O)[C@@H](O)[C@@H]1O`, the Activity entry in data set [1] was “Not toxic”; in data set [4], “Active”. For the same compound, the % survival in data set [2] was 90%. Also, the lipophilicity (logP) (commonly a log measure of how a compound divides between an organic and an aqueous phase) in data set [3] came out at 0.75.
For `OC[C@H]1O[C@@H](Sc2c(F)c(F)c(-c3c4nc(c(-c5c(F)c(F)c(F)c(F)c5F)c5ccc([nH]5)c(-c5c(F)c(F)c(F)c(F)c5F)c5nc(c(-c6c(F)c(F)c(F)c(F)c6F)c6ccc3[nH]6)C=C5)C=C4)c(F)c2F)[C@H](O)[C@@H](O)[C@@H]1O`, the Activity entry in data set [1] is “Not toxic”; in data set [4], “Active”. Besides, in data set [2], the % survival stood at 90%. In data set [3], the logP is 5.11.
As for `OC[C@H]1O[C@@H](Sc2c(F)c(F)c(-c3c4nc(c(-c5c(F)c(F)c(S[C@@H]6O[C@H](CO)[C@@H](O)[C@H](O)[C@H]6O)c(F)c5F)c5ccc([nH]5)c(-c5c(F)c(F)c(F)c(F)c5F)c5nc(c(-c6c(F)c(F)c(F)c(F)c6F)c6ccc3[nH]6)C=C5)C=C4)c(F)c2F)[C@H](O)[C@@H](O)[C@@H]1O`, the figures for the Activity result in data set [1] and in data set [4] were “Not toxic” and “Active”, respectively. The % survival in data set [2] was found to be 90%. This compound also had a logP in data set [3] of 3.98.
As for `OC[C@H]1O[C@@H](Sc2c(F)c(F)c(-c3c4nc(c(-c5c(F)c(F)c(F)c(F)c5F)c5ccc([nH]5)c(-c5c(F)c(F)c(S[C@@H]6O[C@H](CO)[C@@H](O)[C@H](O)[C@H]6O)c(F)c5F)c5nc(c(-c6c(F)c(F)c(F)c(F)c6F)c6ccc3[nH]6)C=C5)C=C4)c(F)c2F)[C@H](O)[C@@H](O)[C@@H]1O`, the Activity entry was “Not toxic” in data set [1] and “Active” in data set [4]. The % survival in data set [2] was less than 5%. Besides, the result in data set [5] and in data set [6] was Active. In data set [3], this compound had a logP of 3.53.
Regarding `OC[C@H]1O[C@@H](Sc2c(F)c(F)c(-c3c4nc(c(-c5c(F)c(F)c(S[C@@H]6O[C@H](CO)[C@@H](O)[C@H](O)[C@H]6O)c(F)c5F)c5ccc([nH]5)c(-c5c(F)c(F)c(S[C@@H]6O[C@H](CO)[C@@H](O)[C@H](O)[C@H]6O)c(F)c5F)c5nc(c(-c6c(F)c(F)c(F)c(F)c6F)c6ccc3[nH]6)C=C5)C=C4)c(F)c2F)[C@H](O)[C@@H](O)[C@@H]1O`, the Activity result in data set [1] was “Not toxic”; in data set [4], “Active”. For the same compound, in data set [2], the % survival came out at 80%. For the same compound, the logP in data set [3] turned out to be 2.99.
